Data as given in PMC6539495, “Anti-Cancer Activity of Novel Dihydrotestosterone-Derived Ring A-Condensed Pyrazoles on Androgen Non-Responsive Prostate Cancer Cell Lines” (International Journal of Molecular Sciences, 2019).

How the values were obtained:
[1] = test system: MRC-5 cells; experiment: MTT cell viability assay on non-cancerous MRC-5 fibroblasts; assay type: cell-based; conditions: 72 hours, MTT
Experimental: (§1) HeLa, MCF-7 and MDA-MB-231 cells were obtained from Sigma-Aldrich and maintained as reported previously. MRC-5, PC-3, DU 145 cells were purchased from American Type Culture Collection (ATCC, Manassas, VA, USA). PC-3 and DU 145 were maintained in RPMI medium (Sigma-Aldrich) whereas MRC-5 cells were maintained in DMEM medium (Sigma-Aldrich). All media were complemented with 10% Fetal bovine serum (FBS, Sigma-Aldrich) 2 mM L-glutamine, 0.01% streptomycin and 0.005% ampicillin (Sigma-Aldrich). Cells were cultured under standard conditions in a 37 °C incubator containing 5% CO2 in 95% humidity.
(§2) Each test compound was dissolved in cell culture grade DMSO (Molar Chemicals, Halásztelek, Hungary) in a final concentration of […]. Antiproliferative action of the synthesized steroids was investigated by MTT assay. An amount of 5000 cells/well were seeded into 96 well plates. Twenty-four hours post seeding, all cell lines were treated with each compound in 10 and 30 μM concentrations for 72 hours. […] After 72 hours, cells were washed with PBS and incubated with culture medium containing 0.5 mg/mL MTT (3-(4, 5-dimethylthiazolyl-2)-2,5-diphenyltetrazolium bromide) reagent (SERVA, GmbH, Heidelberg, Germany) for an hour at 37 °C. Formazan crystals were solubilized in DMSO and extinction was measured at 570 nm using a Synergy HTX plate reader (BioTech-Hungary, Budapest, Hungary). MTT assays were performed at least three times using four independent biological replicates. Data were normalized to solvent controls and the graphical representation of the obtained data as well as the calculation of IC50 values were carried out by GraphPad Prism 7 software (GraphPad Software; San Diego, CA, USA).

[2] = test system: DU 145 cells; experiment: MTT cell viability assay on DU 145 prostate cancer cells; assay type: cell-based, human; conditions: 72 hours
Experimental: as §1, §2

[3] = test system: PC-3 cells; experiment: MTT cell viability assay on PC-3 prostate cancer cells; assay type: cell-based, human; conditions: for antiproliferative potency against PC-3 prostate cancer cells compared to MRC-5 non-cancerous fibroblasts: primary screen
Experimental: as §1, §2

[4] = test system: HeLa cells; experiment: MTT cell viability assay on HeLa cervical cancer cells; assay type: cell-based, human; conditions: 72 hours
Experimental: as §1, §2

[5] = test system: MCF-7 cells; experiment: MTT cell viability assay on MCF-7 breast cancer cells; assay type: cell-based, human; conditions: 72 hours
Experimental: as §1, §2

[6] = test system: MDA-MB-231 cells; experiment: MTT cell viability assay on MDA-MB-231 breast cancer cells; assay type: cell-based, human; conditions: 72 hours
Experimental: as §1, §2

SMILES	Mean values (%) of primary growth inhibitory screen (viability in %), MRC-5 ([1]; 10 µM) [%]	Mean values (%) of primary growth inhibitory screen (viability in %), MRC-5 ([1]; 30 µM) [%]	Mean values (%) of primary growth inhibitory screen (viability in %), DU 145 ([2]; 10 µM) [%]	Mean values (%) of primary growth inhibitory screen (viability in %), DU 145 ([2]; 30 µM) [%]	Mean values (%) of primary growth inhibitory screen (viability in %), PC-3 ([3]; 10 µM, 72 hours, MTT) [%]	antiproliferative potency against PC-3 prostate cancer cells compared to MRC-5 non-cancerous fibroblasts ([3]; 10 µM)	Mean values (%) of primary growth inhibitory screen (viability in %), PC-3 ([3]; 30 µM, 72 hours, MTT) [%]	Mean values (%) of primary growth inhibitory screen (viability in %), HeLa ([4]; 10 µM) [%]	Mean values (%) of primary growth inhibitory screen (viability in %), HeLa ([4]; 30 µM) [%]	Mean values (%) of primary growth inhibitory screen (viability in %), MCF-7 ([5]; 10 µM) [%]	Mean values (%) of primary growth inhibitory screen (viability in %), MCF-7 ([5]; 30 µM) [%]	Mean values (%) of primary growth inhibitory screen (viability in %), MDA-MB-231 ([6]; 10 µM) [%]	Mean values (%) of primary growth inhibitory screen (viability in %), MDA-MB-231 ([6]; 30 µM) [%]	IC50 ([1]; ± SD) [µM]	IC50 ([2]; ± SD) [µM]	IC50 ([3]; MTT, 72 hours, ± SD) [µM]	IC50 ([4]; ± SD) [µM]	IC50 ([5]; ± SD) [µM]	IC50 ([6]; ± SD) [µM]	antiproliferative potency against PC-3 prostate cancer cells compared to MRC-5 non-cancerous fibroblasts ([3]; 30 µM)
Cc1ccccc1-n1nc2c(c1C)C[C@@]1(C)[C@@H](CC[C@@H]3[C@@H]1CC[C@]1(C)[C@@H](O)CC[C@@H]31)C2 [4b, 17β-Hydroxy-1′-(2″-tolyl)-5′-methylpyrazolo[3′,4′:3,2]-5α-androstane]	72.9	64.2	61.1	48.3	67.5	significantly higher	54.7	36.0	34.1	39.1	32.4	69.0	64.0	–	–	–	–	–	–	–
Cc1ccc(-n2nc3c(c2C)CC2(C)C(CCC4C5CCC(O)C5(C)CCC42)C3)cc1 (stereo not drawn) [4c, 17β-Hydroxy-1′-(4″-tolyl)-5′-methylpyrazolo[3′,4′:3,2]-5α-androstane]	75.0	37.5	87.3	5.1	44.0	significantly higher	4.2	56.1	8.0	49.5	5.4	81.7	12.0	–	–	–	–	–	–	–
Cc1ccc(-n2nc3c(c2C)C[C@@]2(C)[C@@H](CC[C@@H]4[C@@H]2CC[C@]2(C)[C@@H](O)CC[C@@H]42)C3)c(C)c1 [4d, 17β-Hydroxy-1′-(2″,4″-dimethylphenyl)-5′-methylpyrazolo[3′,4′:3,2]-5α-androstane]	78.9	0.8	70.2	2.3	53.4	–	3.6	65.6	56.1	74.5	10.5	92.0	47.9	–	–	–	–	–	–	–
Cc1c2c(nn1-c1ccc(F)cc1)CC1CCC3C4CCC(O)C4(C)CCC3C1(C)C2 (stereo not drawn) [4f, 17β-Hydroxy-1′-(4″-fluorophenyl)-5′-methylpyrazolo[3′,4′:3,2]-5α-androstane]	68.7	14.8	71.6	3.9	41.8	–	5.1	46.1	7.6	57.1	5.4	83.4	32.0	–	–	–	–	–	–	–
Cc1c2c(nn1-c1ccc(Cl)cc1)C[C@@H]1CC[C@@H]3[C@H](CC[C@]4(C)[C@@H](O)CC[C@@H]34)[C@@]1(C)C2 [4g, 17β-Hydroxy-1′-(4″-chlorophenyl)-5′-methylpyrazolo[3′,4′:3,2]-5α-androstane]	80.1	1.1	74.8	1.4	44.6	significantly higher	3.0	40.1	4.7	48.5	5.3	78.4	5.3	15.6 ± 1.4	14.2 ± 1.3	7.7 ± 1.2	7.2 ± 0.4	4.4 ± 0.3	12.6 ± 1.5	–
Cc1c2c(nn1-c1ccc(Br)cc1)C[C@@H]1CC[C@@H]3[C@H](CC[C@]4(C)[C@@H](O)CC[C@@H]34)[C@@]1(C)C2 [4h, 17β-Hydroxy-1′-(4″-bromophenyl)-5′-methylpyrazolo[3′,4′:3,2]-5α-androstane]	92.8	12.7	95.1	2.2	61.6	–	3.6	38.2	5.8	54.1	5.2	69.4	10.5	–	–	–	–	–	–	–
Cc1c2c(nn1-c1ccc(C#N)cc1)C[C@@H]1CC[C@@H]3[C@H](CC[C@]4(C)[C@@H](O)CC[C@@H]34)[C@@]1(C)C2 [4i, 17β-Hydroxy-1′-(4″-cyanophenyl)-5′-methylpyrazolo[3′,4′:3,2]-5α-androstane]	100.3	97.4	104.9	105.7	56.6	significantly higher	53.3	62.9	72.5	53.6	50.4	93.0	89.1	–	–	–	–	–	–	significantly higher
